Test results reported in patent US9770461B2, “Tailored glycopolymers as anticoagulant heparin mimetics” (California Institute of Technology, priority 2013, dated 2017).

Tests used:
Assay type in all cases: biochemical
[1] = system: Factor Xa (FXa); assay: Chromogenic anti-FXa assay in the presence of antithrombin III; conditions: with ATIII
Procedure: The BIOPHEN Heparin Anti-Xa (2 stages) USP/EP kit (Aniara) was used to determine factor Xa activity. This chromogenic anti-Xa method for measuring homogeneous heparin in purified systems is in compliance with Pharmacopoeias (USP, EP) and FDA guidelines. All reagents were prepared according to manufacturer's instructions and incubated at 37° C. for 15 min. Varying concentrations of heparin (Neoparin) or glycopolymers 1-4 (40 μL) and antithrombin (40 μL) were added to a microcentrifuge tube, mixed, and incubated at 37° C. for 2 min. Factor Xa (40 μL) was added to the solution, incubated at 37° C. for exactly 2 min, and then the factor Xa chromogenic substrate (40 μL) was added. After 2 min, the reaction was quenched with citric acid (20 g/L, 240 μL), and the absorbance was measured at 405 nm. The sample blank was obtained by mixing the reagents in reverse order, and the resulting value was deducted from the absorbance values measured in the assay.
All reagents were prepared according to the manufacturer's instructions and incubated at 37° C. for 15 min. […] Absorbance at 405 nm was measured on a Uvikon XL spectrophotometer. […] The sample blank value was deducted from the absorbance measured for the corresponding assay.

[2] = system: citrated human plasma; assay: Prothrombin time (PT) analysis; conditions: 300 μL of 150 μg/mL sample in 2.7 mL citrated human plasma
Procedure: Samples were prepared by mixing 300 μL of the heparin standard or glycopolymer (150 μg/mL) in 0.9% saline with 2.7 mL citrated human plasma. The tube was inverted 3 times to mix the sample thoroughly. Samples were analyzed by the UCLA Clinical & Translational Research Laboratory using a Sysmex® CA-1500 Coagulation Analyzer (Siemens AG, Erlangen, Germany). Clotting time in the absence of an anticoagulant was determined using 0.9% saline solution water (300 μL). Each clotting assay was performed in triplicate.

[3] = system: citrated human plasma; assay: Activated partial thromboplastin time (APTT) analysis
Procedure: Plasma/anticoagulant samples were prepared by mixing 300 μL of the heparin standard or glycopolymer (150 μg/mL) in 0.9% saline and 2.7 mL of citrated human plasma. The tube was inverted 3 times to mix the sample thoroughly. Samples were analyzed by the UCLA Clinical & Translational Research Laboratory using a Sysmex® CA-1500 Coagulation Analyzer (Siemens AG, Erlangen, Germany). Clotting time in the absence of an anticoagulant was determined using 0.9% saline solution water (300 μL). Each clotting assay was performed in triplicate.

## CO[C@H]1O[C@H](COS(=O)(=O)O)[C@@H](O[C@@H]2O[C@@H](C(=O)O)[C@@H](O[C@H]3O[C@H](COS(=O)(=O)O)[C@@H](O[C@@H]4O[C@H](C(=O)O)[C@@H](O[C@H]5O[C@H](COS(=O)(=O)O)[C@@H](O)[C@H](O)[C@H]5NS(=O)(=O)O)[C@H](O)[C@H]4O)[C@H](OS(=O)(=O)O)[C@H]3NS(=O)(=O)O)[C@H](O)[C@H]2OS(=O)(=O)O)[C@H](O)[C@H]1NS(=O)(=O)O [Arixtra]
[1]
  IC50: 11 ± 0.1 nM
[2]
  PT: 15.1 ± 0.3 s
[3]; 300 μL of 150 μg/mL sample in 2.7 mL citrated human plasma
  APTT: 78.3 ± 0.4 s
[3]; compared to saline control
  effect on APTT (in words): increased only the APTT
